Measured values from patent US9434763B2, “Derivatives of pyridinone as inhibitors for tissue transglutaminase” (ZEDIRA GMBH, priority 2012, dated 2016).

target: T1, His tagged recombinant human tissue transglutaminase (His6-rh-TG2) (Homo sapiens, UniProt P21980); assay: Inactivation of human tissue transglutaminase, fluorescence assay with Abz-APE(CAD-DNP)QEA-OH; assay type: biochemical; conditions: substrate Abz-APE(CAD-DNP)QEA-OH, 37° C., pH=7.5
T1 construct: purchased Zedira T002
T1 sequence (P21980 1-687): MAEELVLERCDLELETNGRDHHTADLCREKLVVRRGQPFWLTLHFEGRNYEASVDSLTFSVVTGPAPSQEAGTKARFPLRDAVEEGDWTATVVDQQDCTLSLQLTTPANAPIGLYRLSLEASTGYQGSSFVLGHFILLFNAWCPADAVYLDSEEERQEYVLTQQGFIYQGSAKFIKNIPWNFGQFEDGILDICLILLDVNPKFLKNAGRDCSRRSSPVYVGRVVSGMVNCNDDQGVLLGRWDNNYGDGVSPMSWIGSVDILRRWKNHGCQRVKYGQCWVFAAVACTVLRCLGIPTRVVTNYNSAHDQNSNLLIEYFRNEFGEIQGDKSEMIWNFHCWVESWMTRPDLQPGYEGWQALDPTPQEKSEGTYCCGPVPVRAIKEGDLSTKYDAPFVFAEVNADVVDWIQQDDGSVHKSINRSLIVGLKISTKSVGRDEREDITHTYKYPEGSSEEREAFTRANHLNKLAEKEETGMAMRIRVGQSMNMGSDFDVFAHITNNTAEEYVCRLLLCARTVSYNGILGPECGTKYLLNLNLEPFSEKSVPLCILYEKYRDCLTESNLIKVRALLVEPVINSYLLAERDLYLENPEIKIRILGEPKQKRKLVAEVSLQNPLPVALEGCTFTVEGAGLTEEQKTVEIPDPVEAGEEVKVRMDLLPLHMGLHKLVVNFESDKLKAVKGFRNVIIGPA
Protocol: General Method for Inactivation of Human Tissue Transglutaminase
250 μg lyophilized His tagged recombinant human tissue transglutaminase (His6-rh-TG2, Zedira product T002) are reconstituted by adding 150 μl water (resulting buffer 50 mM NaH2PO4, 150 mM NaCl, pH=8.0).
A 10 mM inhibitor stock solution in DMSO is prepared and is diluted with buffer (50 mM Tris-HCl, 10 mM CaCl2, 5 mM DTT, pH=7.5) each to the twentyfold of the concentration desired in the preparation (but at least 1/50 dilution resulting in a 2% DMSO concentration).
900 μl of an assay-solution consisting of 55.56 mM Tris, 11.11 mM CaCl2, 0.11% PEG8000, 5.56 mM DTT, 5.56 mM glycine methyl ester and 50 μM Abz-APE(CAD-DNP)QEA-OH, (Zedira product A102; patent No.: EP 1781807B1), pH=7.5 are added to a cuvette and heated in a measuring cell of a spectrophotometer to 37° C. 50 μl of the particular inhibitor solution are added to this solution (resulting in a concentration of less than 0.2% DMSO in the mixture).
7 μl of the transglutaminase solution reconstituted above are diluted with 51 μl buffer (50 mM Tris, 100 mM NaCl, 5 mM DTT, pH=7.5). 50 μl of this enzyme solution (10 μg His6-rhTG2) are added to the assay-solution containing the particular inhibitor concentration. It is incubated 5 min at 37° C. before measuring starts (λexc=313 nm and λem=418 nm, t=15 to 30 min).
The evaluation of the resulting enzyme activity is done using the slope of the straight line obtained by the increase in fluorescence.
To determine the non-inhibited enzyme activity, DMSO instead of inhibitor stock solution is used. IC50 values are determined by plotting the resulting enzyme activity against the logarithm of the inhibitor concentration. IC50 is defined as the concentration of inhibitor resulting in 50% of enzyme activity.

SMILES | IC50
CCOC(=O)/C=C/CC[C@H](NC(=O)CCC(=O)O)C(=O)Nc1cccn(CC(=O)NCC(C)CC)c1=O (stereo partly drawn) [A51, 4-((2S,E)-7-Ethoxy-1-(1-(2-(2-methylbutylamino)-2-oxoethyl)-2-oxo-1,2-dihydropyridin-3-ylamino)-1,7-dioxohept-5-en-2-ylamino)-4-oxobutanoic acid] | 166 nM
CCOC(=O)/C=C/CC[C@H](NC(C)=O)C(=O)Nc1cccn(CC(=O)N2CCCC(C)C2)c1=O (stereo partly drawn) [A52, (6S,E)-Ethyl 6-acetamido-7-(1-(2-(3-methylpiperidin-1-yl)-2-oxoethyl)-2-oxo-1,2-dihydropyridin-3-ylamino)-7-oxohept-2-enoate] | 700 nM
CCOC(=O)/C=C/CC[C@H](NC(C)=O)C(=O)Nc1cccn(CC(=O)NCC(C)C)c1=O [A54, (S,E)-Ethyl 6-acetamido-7-(1-(2-(isobutylamino)-2-oxoethyl)-2-oxo-1,2-dihydropyridin-3-ylamino)-7-oxohept-2-enoate] | 191 nM
CCOC(=O)/C=C/CC[C@H](NC(C)=O)C(=O)Nc1cccn(CC(=O)NC(C)C(C)C)c1=O (stereo partly drawn) [A55, (6S,E)-Ethyl 6-acetamido-7-(1-(2-(3-methylbutan-2-ylamino)-2-oxoethyl)-2-oxo-1,2-dihydropyridin-3-ylamino)-7-oxohept-2-enoate] | 153 nM
CCOC(=O)/C=C/CC[C@H](NC(=O)CCNC(N)=O)C(=O)Nc1cccn(CC(=O)NCCC(C)C)c1=O [A56, (S,E)-Ethyl 7-(1-(2-(isopentylamino)-2-oxoethyl)-2-oxo-1,2-dihydropyridin-3-ylamino)-7-oxo-6-(3-ureidopropanamido)hept-2-enoate] | 139 nM
COC(=O)/C=C/CC[C@H](NC(C)=O)C(=O)Nc1cccn(CC(=O)N2CCCC(C(F)(F)F)C2)c1=O (stereo partly drawn) [A66, (6S,E)-Methyl 6-acetamido-7-oxo-7-(2-oxo-1-(2-oxo-2-(3-(trifluoromethyl)piperidin-1-yl)ethyl)-1,2-dihydropyridin-3-ylamino)hept-2-enoate] | 310 nM
CCC(CC)CNC(=O)Cn1cccc(NC(=O)[C@@H](CC/C=C/C(=O)OC)NC(=O)c2cncn2C)c1=O [A76, (R,E)-Methyl 7-(1-(2-(2-ethylbutylamino)-2-oxoethyl)-2-oxo-1,2-dihydropyridin-3-ylamino)-6-(1-methyl-1H-imidazole-5-carboxamido)-7-oxohept-2-enoate] | 54700 nM
CC(=O)N[C@@H](CC/C=C/S(C)(=O)=O)C(=O)Nc1cccn(CC(=O)NCCC(C)C)c1=O [A77, (S,E)-2-acetamido-N-(1-(2-(isopentylamino)-2-oxoethyl)-2-oxo-1,2-dihydropyridin-3-yl)-6-(methylsulfonyl)hex-5-enamide] | 469 nM
CC(=O)N[C@@H](CC/C=C/C(=O)OCc1ccccc1)C(=O)Nc1cccn(CC(=O)NCCC(C)C)c1=O [A78, (S,E)-Benzyl 6-acetamido-7-(1-(2-(isopentylamino)-2-oxoethyl)-2-oxo-1,2-dihydropyridin-3-ylamino)-7-oxohept-2-enoate] | 627 nM

Continued, values first:

IC50 | SMILES
97 nM | CCC(CC)CNC(=O)Cn1cccc(NC(=O)[C@H](CC/C=C/C(=O)OC)NC(=O)c2ccc3c(c2)C(=O)OC32c3ccc(N(C)C)cc3Oc3cc(N(C)C)ccc32)c1=O [A71, (S,E)-Methyl 6-(3′,6′-bis(dimethylamino)-3-oxo-3H-spiro[isobenzofuran-1,9′-xanthene]-5-ylcarboxamido)-7-(1-(2-(2-ethylbutylamino)-2-oxoethyl)-2-oxo-1,2-dihydropyridin-3-ylamino)-7-oxohept-2-enoate]
84 nM | CCOC(=O)/C=C/CC[C@H](NC(C)=O)C(=O)Nc1cccn(CC(=O)N[C@H](C(=O)OC)C(C)C)c1=O [A57, (S,E)-Ethyl 6-acetamido-7-(1-(2-((S)-1-methoxy-3-methyl-1-oxobutan-2-ylamino)-2-oxoethyl)-2-oxo-1,2-dihydropyridin-3-ylamino)-7-oxohept-2-enoate]
81 nM | CCC(CC)CNC(=O)Cn1cccc(NC(=O)[C@H](CC/C=C/C(=O)OC)NC(=O)c2ccccc2N)c1=O [A70, (S,E)-Methyl 6-(2-aminobenzamido)-7-(1-(2-(2-ethylbutylamino)-2-oxoethyl)-2-oxo-1,2-dihydropyridin-3-ylamino)-7-oxohept-2-enoate 2,2,2-trifluoroacetate]
71 nM | CCC(CC)CNC(=O)Cn1cccc(NC(=O)[C@H](CC/C=C/C(=O)OC)NC(=O)CN)c1=O [A69, (S,E)-Methyl 6-(2-aminoacetamido)-7-(1-(2-(2-ethybutylamino)-2-oxoethyl)-2-oxo-1,2-dihydropyridin-3-ylamino)-7-oxohept-2-enoate 2,2,2-trifluoroacetate]
55 nM | CCC(CC)CNC(=O)Cn1cccc(NC(=O)[C@H](CC/C=C/C(=O)OC)NC(=O)c2cccnc2)c1=O [A67, (S,E)-Methyl 7-(1-(2-(2-ethylbutylamino)-2-oxoethyl)-2-oxo-1,2-dihydropyridin-3-ylamino)-6-(nicotinamido)-7-oxohept-2-enoate]
53 nM | CCC(CC)CNC(=O)Cn1cccc(NC(=O)[C@H](CC/C=C/C(=O)OC)NC(=O)C(C)N)c1=O (stereo partly drawn) [A68, (6S,E)-Methyl 6-(2-aminopropanamido)-7-(1-(2-(2-ethylbutylamino)-2-oxoethyl)-2-oxo-1,2-dihydropyridin-3-ylamino)-7-oxohept-2-enoate 2,2,2-trifluoroacetate]

test system: Huh 7 (human hepatome-cell line); assay: Cytotoxicity: metabolic activity, EZ4U-Assay, Huh 7; assay type: cell-based; conditions: Huh7 cells; 48 hours after addition; inhibitors up to 1 mM (so in the source); cycloheximide 2.5 μg/ml, camptothecin 0.2 μg/ml
Protocol: (§1) Huh 7 (human hepatome-cell line) and CaCo2 (human colon carcinoma-cell line) were seeded to 96 well plates in Dulbecco's Modified Eagle's Medium (DMEM)/10% fetal calf serum (FCS) and cultivated. The method is known to the skilled person.
(§2) […] The determination of the proliferation was carried out using the Cell Proliferation ELISA, BrdU (Roche 11 647 229 001): 24 hours after incubation of the cells with the inhibitor BrdU was added. The colorimetric development of the test was made after further 48 hours according to manufacturer's information. The extinction was measured at 450 nm. For determination of the metabolic activity using the EZ4U-Assay (Biomedica B1-5000) the tetrazolium substrate was added to the cells 48 hours after addition of the inhibitor. The capacity for reaction of the cells was measured every hour over a period of 4 hours at 450 nm against a reference filter of 630 nm. DMEM without inhibitor was added as reference in both experiments, as positive control cycloheximide (2.5 μg/ml) and camptothecin (0.2 μg/ml).

SMILES | effect on metabolic activity (EZ4U)
CC[C@@]1(O)C(=O)OCc2c1cc1n(c2=O)Cc2cc3ccccc3nc2-1 [camptothecin, reference compound] | significant reduction

test system: CaCo2 (human colon carcinoma-cell line); assay: Cytotoxicity: proliferation, Cell Proliferation ELISA, BrdU, CaCo2; assay type: cell-based; conditions: CaCo2 cells; inhibitors up to highest measured concentration of 1 mM (so in the source); cycloheximide 2.5 μg/ml, camptothecin 0.2 μg/ml
Protocol: as §1, §2

SMILES | effect on proliferation (BrdU)
CC[C@@]1(O)C(=O)OCc2c1cc1n(c2=O)Cc2cc3ccccc3nc2-1 [camptothecin, reference compound] | significant reduction

test system: CaCo2 (human colon carcinoma-cell line); assay: Cytotoxicity: metabolic activity, EZ4U-Assay, CaCo2; assay type: cell-based; conditions: CaCo2 cells; 48 hours after addition; inhibitors up to 1 mM (so in the source); cycloheximide 2.5 μg/ml, camptothecin 0.2 μg/ml
Protocol: as §1
After one hour the inhibitors A63 (ZED1227), A29 (ZED1098) and A61 (ZED1219) were added in the concentrations 0.1 μM to 1 μM. The determination of the proliferation was carried out using the Cell Proliferation ELISA, BrdU (Roche 11 647 229 001): 24 hours after incubation of the cells with the inhibitor BrdU was added. The colorimetric development of the test was made after further 48 hours according to manufacturer's information. The extinction was measured at 450 nm. For determination of the metabolic activity using the EZ4U-Assay (Biomedica B1-5000) the tetrazolium substrate was added to the cells 48 hours after addition of the inhibitor. The capacity for reaction of the cells was measured every hour over a period of 4 hours at 450 nm against a reference filter of 630 nm. DMEM without inhibitor was added as reference in both experiments, as positive control cycloheximide (2.5 μg/ml) and camptothecin (0.2 μg/ml).

SMILES | effect on metabolic activity (EZ4U)
CC[C@@]1(O)C(=O)OCc2c1cc1n(c2=O)Cc2cc3ccccc3nc2-1 [camptothecin, reference compound] | significant reduction

test system: Huh 7 (human hepatome-cell line); assay: Cytotoxicity: proliferation, Cell Proliferation ELISA, BrdU, Huh 7; assay type: cell-based; conditions: Huh7 cells; inhibitors up to highest measured concentration of 1 mM (so in the source); cycloheximide 2.5 μg/ml, camptothecin 0.2 μg/ml
Protocol: as §1, §2

SMILES | effect on proliferation (BrdU)
CC[C@@]1(O)C(=O)OCc2c1cc1n(c2=O)Cc2cc3ccccc3nc2-1 [camptothecin, reference compound] | significant reduction
